In patent US9987243B2, “Use of trans-palmitoleate in identifying and treating metabolic disease” (Trustees of Tufts College, priority 2010, dated 2018):
Marks after values point to notes of the source that are not given here.

Legend:
[1] = system: 2,985 participants free of prevalent diabetes at baseline; experiment: Cardiovascular Health Study: plasma phospholipid fatty acids and incident diabetes mellitus (Cox proportional-hazards); type: in vivo, human; details: for RR of diabetes per SD: per each higher SD of the plasma phospholipid fatty acid, multivariable-adjusted (covariates as in Table 4)
Protocol: Plasma phospholipid fatty acids, anthropometry, blood lipids, inflammatory markers, and glucose-insulin levels were measured at baseline using standardized methods. Independent determinants of trans-palmitoleate and relationships of trans-palmitoleate with metabolic risk factors were investigated using multivariable-adjusted linear regression.
Multivariable model adjusted for age (years), gender (male/female), race (white/nonwhite), education (<high school, high school, some college, college graduate), enrollment site (four sites), smoking (never, former, current), body mass index (kg/m^2), waist circumference (cm), coronary heart disease (yes/no), physical activity (kcal/wk), alcohol use (six categories), and consumption of carbohydrate (% energy), protein (% energy), red meat (servings/week), whole-fat dairy foods (6 categories), low-fat dairy foods (five categories), and total energy (kcal/d).
Participants were followed by means of annual examinations for 10 years with interim and subsequent 6-month telephone contacts. Ives et al., 5 Ann. Epidemiol. […] At each visit, detailed medication information was obtained using medication inventories. At baseline, study interviewers visited participants in their homes and asked to see all prescription medications they had taken in the previous 2 weeks. At follow-up exams, participants brought to clinic all prescription medications taken in the previous 2 weeks. Drug names, doses, and frequencies were coded according to prescription medication Medispan files.
Relationships between phospholipid fatty acids were evaluated using Spearman correlation. Trans-palmitoleate levels were evaluated in sex-specific quintiles as indicator variables and continuously per SD difference. Independent demographic and lifestyle determinants of trans-palmitoleate were evaluated using multivariable-adjusted linear regression with trans-palmitoleate as the dependent variable. Multivariable-adjusted relationships of trans-palmitoleate with metabolic risk factors (transformed for normality as appropriate) were evaluated using linear regression with trans-palmitoleate as the independent variable. Quintiles were evaluated as ordinal variables to assess trend, to assess effect modification using the Wald test for a multiplicative interaction term, and to assess differences in baseline characteristics by means of linear or logistic regression. […] To minimize potential confounding, covariates were selected based on biologic interest, being well-established risk factors for metabolic risk, or associations with exposures/outcomes in the present cohort. […] Analyses were performed using Stata10.1 (College Station, Tex.), two-tailed alpha=0.05.

[2] = system: C2C12 myotubes; experiment: Glucose uptake assay in differentiated C2C12 myotubes; type: cell-based; details: 0.25 mM for 6 hr, values only in FIG. 1
Protocol: FIG. 1 is a bar graph showing data from differentiated C2C12 myotubes that were incubated with control medium, or medium with 0.25 mM palmitate (C16) or trans-16:1n7-palmitoleate for 6 hours; glucose uptake was assayed as described herein.
C2C12 myoblasts were maintained in 20% fetal bovine serum. To differentiate the myoblasts, cells were plated in 12-well plates coated with 0.2% gelatin and medium changed to 2% horse serum upon confluence. Five days post-differentiation, C2C12 myotubes were incubated in serum-free medium with 0.5% bovine serum albumin (Sigma) and indicated fatty acids at a final concentration of 0.25 mM for 6 hr. Glucose uptake assay was performed as described previously, with modifications. Somwar et al., 276 J. Biol. Chem. 46079 (2001). Briefly, cells were washed twice with 500 μl warm Krebs-Ringer-Hepes (KRH) buffer and 1 ml of KRH buffer was added into each wells. ^3H 2-D-Glucose (0.5 μCi/well) was added and cells were kept in incubator for 10 min. Medium was then removed and cells washed twice with ice-cold KRH buffer. Cells were plated on ice and lysed in 500 μl 0.1% SDS. Aliquots of 400 μl cell lysate were used for scintillation counting and protein assay quantification assay was performed on the rest of cell lysate.

[3] = system: 3,736 U.S. men and women in the Cardiovascular Health Study; experiment: Cardiovascular Health Study: multivariable-adjusted relationships of plasma phospholipid trans-palmitoleate with metabolic risk factors; type: in vivo, human; details: for BMI / Blood Pressure: Diastolic / Blood Pressure: Systolic / Fasting insulin / HOMA-IR / Total/HDL-C ratio / Waist circumference: adjusted mean
Protocol: The present inventors investigated relationships of circulating trans-palmitoleate levels with metabolic risk and incident diabetes mellitus among 3,736 U.S. men and women in the prospective Cardiovascular Health Study. Plasma phospholipid fatty acids, anthropometry, blood lipids, inflammatory markers, and glucose-insulin levels were measured at baseline using standardized methods. Independent determinants of trans-palmitoleate and relationships of trans-palmitoleate with metabolic risk factors were investigated using multivariable-adjusted linear regression. Relationships with incident diabetes (304 incident cases) were investigated using Cox proportional-hazards. Validation for metabolic risk factors was performed in a second independent cohort of 327 generally healthy women.
CHS design and recruitment have been described. Fried et al., 1 Ann. Epidemiol. 263 (1991). Briefly, 5,201 ambulatory, non-institutionalized adults age ≥65 were selected randomly and then enrolled in 1989 to 1990 from Medicare eligibility lists in 4 U.S. communities (Forsyth County, NC; Sacramento County, CA; Washington County, MD.; Allegheny County, PA); an additional 687 black participants were recruited similarly and enrolled in 1992. Among all eligible adults contacted, 57% agreed to enroll. Baseline in-clinic evaluations included standardized physical examination, diagnostic testing, laboratory evaluation, and questionnaires on health status, medical history, and cardiovascular and lifestyle risk factors. Each center's institutional review committee approved the study; all participants provided informed written consent.
Plasma phospholipid fatty acids were measured in 3,736 individuals using 1992 blood samples, considered to be the baseline for all present analyses. This included 3,238 participants randomly selected from individuals with available blood samples in 1992 and an additional 498 participants from a prior case-control study of myocardial infarction. All analyses accounted for this within-cohort sampling using inverse-probability-of-sampling weights. Plasma phospholipids were selected as an excellent marker of longer-term (4-8 week) circulating fatty acids, with similar responses as levels in erythrocyte membranes. Blood was drawn after a 12-hr fast, stored (−70° C.), and shipped on dry ice for long-term centralized storage (−80° C.). Under these conditions plasma phospholipid fatty acids are stable long-term, and in prior studies we observed no degradation, lipolysis, or oxidation after 10 years storage. Measurements were performed at the Fred Hutchinson Cancer Research Center, providing quantitative measurement of 45 fatty acids as percent of total fatty acids. Total lipids were extracted from plasma using methods of Folch, and phospholipids separated from neutral lipids by one-dimensional TLC. Fatty-acid-methyl-ester (FAME) samples were prepared by direct transesterification using methods of Lepage and separated using gas chromatography (Agilent5890 gas-chromatograph-FID-detector; Supelco fused-silica 100 m capillary column SP-2560; initial 160° C. 16 min, ramp 3.0° C./min to 240° C., hold 15 min). Identification, precision, and accuracy were continuously evaluated using model mixtures of known FAMEs and established in-house controls, with identification confirmed by GC-MS at USDA (Peoria, Ill.) or for trans-fats by silver-ion TLC. CVs were 2.5% for trans-palmitoleate and <3% for most fatty acids.
At study-clinic examinations, risk factors were measured by trained personnel. Fried et al., 1991. Anthropometric measures including weight, height, and waist circumference were collected using standard procedures and used to calculate body mass index (BMI). Fasting total cholesterol, HDL-C, and triglycerides were measured according to CDC methods. LDL-C was calculated according to Friedewald equation, excluding individuals with hypertriglyceridemia. […]

[4] = system: OB/OB, wild-type, and high-fat diet mice; experiment: Tolerability of oral gavage administration in mice; type: in vivo; details: 200 mg/kg/day to 2 g/kg/day for 5 weeks in PEG 300
Protocol: Trans-palmitoleate was obtained in pure, powdered form from Nu-Check Prep, Inc. (Elysian, Minn.) and dissolved in a polyethylene glycol vehicle (PEG 300). Mice were administered, by gavage, trans-palmitoleate in doses ranging from 200 mg/kg/day to 2 g/kg/day for 5 weeks. […] In OB/OB mice, after 2 weeks of treatment, plasma lipid analysis was determined from samples taken after 6 hr of fasting, 30 hr after last trans-palmiloleate administration. Additionally, research diets comprising mouse chow at 2% trans-palmitoleate % total food weight can be formulated.

[5] = system: 327 generally healthy women in the Nurses' Health Study; experiment: Nurses' Health Study validation cohort: erythrocyte and plasma trans-palmitoleate versus metabolic risk factors; type: in vivo, human; details: multivariable-adjusted level across quartiles
Protocol: For independent validation, we evaluated the association of trans-palmitoleate measured in erythrocyte membranes and plasma (Sun et al., 88 Am. J. Clin. Nutr, 216 (2008)), with metabolic risk factors in a cohort of 327 generally healthy women, age=60.4±6.1 years, in the Nurses' Health Study (NHS). Relationships were evaluated for HDL-C, total:HDL-C, interleukin-6, CRP, and hemoglobinAlc. Because many samples were nonfasting, triglycerides and LDL-C were not evaluated; the number of subjects was too small to evaluate incident diabetes. Multivariable models were adjusted for age, smoking, physical activity, alcohol intake, family history, hypertension, hormone use, fasting status, and dietary carbohydrate, protein, polyunsaturated fats, saturated fat, dietary fiber, and total energy. We also evaluated correlations of trans-palmitoleate levels in plasma vs. erythrocytes in NHS (Spearman correlation[r]=0.74); and in phospholipids vs. triglycerides in CHS (n=104; r=0.54).

[6] = across quintiles, further adjusted for adiposity
[7] = across quintiles, multivariable-adjusted
[8] = quintile I (median 0.13% of total fatty acids)
[9] = quintile II (median 0.16% of total fatty acids)
[10] = quintile III (median 0.18% of total fatty acids)
[11] = quintile IV (median 0.21% of total fatty acids)
[12] = quintile V (median 0.25% of total fatty acids)
[13] = erythrocyte trans-palmitoleate, first value
[14] = erythrocyte trans-palmitoleate, second value
[15] = plasma trans-palmitoleate, first value
[16] = plasma trans-palmitoleate, second value

## CCCCCC/C=C/CCCCCCCCCC(=O)O [Vaccenic acid, vaccenic acid, reference compound]
[1]
  RR of diabetes per SD: 0.89

## CCCCCC/C=C/CCCCCCCC(=O)O [trans-palmitoleate, trans-C16:1n7-palmitoleic acid]
[2]
  glucose uptake: Positive Glucose Uptake
[3]; P=0.006, limited to lower levels in the lowest quintile only
  association with fibrinogen: higher fibrinogen
[3]; [6]
  difference in CRP across quintiles: −13.8%
  difference in HDL-C across quintiles: +1.9%
  difference in fasting insulin across quintiles: −13.3%
  difference in insulin resistance assessed by HOMA-IR across quintiles: −16.7%
  difference in total:HDL-C ratio across quintiles: −4.7%
  difference in triglycerides across quintiles: −19.0%
[3]; [7]
  difference in BMI across quintiles: −1.8%
  difference in waist circumference across quintiles: −1.8%
[3]; multivariable-adjusted
  association with LDL-C, fasting glucose, or BP: not associated
[3]; [8]
  BMI: 26.7 kg/m^2
  Blood Pressure: Diastolic: 71 mmHg
  Blood Pressure: Systolic: 137 mmHg
  Fasting insulin: 11.3 mU/l
  HOMA-IR: 3.0 units
  Total/HDL-C ratio: 4.3
  Waist circumference: 97.7 cm
[3]; [9]
  BMI: 27.0 kg/m^2
  Blood Pressure: Diastolic: 71 mmHg
  Blood Pressure: Systolic: 136 mmHg
  Fasting insulin: 11.0 mU/l
  HOMA-IR: 2.9 units
  Total/HDL-C ratio: 4.3
  Waist circumference: 98.4 cm
[3]; [10]
  BMI: 26.8 kg/m^2
  Blood Pressure: Diastolic: 70 mmHg
  Blood Pressure: Systolic: 136 mmHg
  Fasting insulin: 10.7 mU/l
  HOMA-IR: 2.8* units
  Total/HDL-C ratio: 4.2
  Waist circumference: 97.2 cm
[3]; [11]
  BMI: 26.9 kg/m^2
  Blood Pressure: Diastolic: 71 mmHg
  Blood Pressure: Systolic: 136 mmHg
  Fasting insulin: 10.2† mU/l
  HOMA-IR: 2.7† units
  Total/HDL-C ratio: 4.1†
  Waist circumference: 97.4 cm
[3]; [12]
  BMI: 26.2 kg/m^2
  Blood Pressure: Diastolic: 71 mmHg
  Blood Pressure: Systolic: 136 mmHg
  Fasting insulin: 9.8‡ mU/l
  HOMA-IR: 2.5‡ units
  Total/HDL-C ratio: 4.1†
  Waist circumference: 96.0* cm
[4]
  tolerability: well-tolerated, with no ill effects observed
[1]; additional adjustment for levels of both 15:0 and 17:0
  extreme-quintile RR of new-onset diabetes: 0.39
[1]; additional adjustment for vaccenic acid (trans-18:1n-7)
  extreme-quintile RR of incident diabetes: 0.43
[1]; men
  extreme-quintile RR of incident diabetes: 0.29
[1]
  RR of diabetes per SD: 0.72
[1]; per each higher SD of trans-palmitoleate
  multivariable-adjusted RR of diabetes lower per each higher SD: 28%
[1]; quintile I, 5,595 person-years of follow-up
  No. of incident cases of diabetes mellitus: 93
[1]; quintile II vs quintile I
  Hazard ratio (RR) of incident diabetes, age- and sex-adjusted: 0.84
  Hazard ratio (RR) of incident diabetes, multivariate-adjusted: 0.79
[1]; quintile II, 5,435 person-years of follow-up
  No. of incident cases of diabetes mellitus: 68
[1]; quintile III vs quintile I
  Hazard ratio (RR) of incident diabetes, age- and sex-adjusted: 0.88
  Hazard ratio (RR) of incident diabetes, multivariate-adjusted: 0.89
[1]; quintile III, 5,556 person-years of follow-up
  No. of incident cases of diabetes mellitus: 59
[1]; quintile IV vs quintile I
  Hazard ratio (RR) of incident diabetes, age- and sex-adjusted: 0.44
  Hazard ratio (RR) of incident diabetes, multivariate-adjusted: 0.41
[1]; quintile IV, 5,811 person-years of follow-up
  No. of incident cases of diabetes mellitus: 46
[1]; quintile V vs quintile I
  Hazard ratio (RR) of incident diabetes, age- and sex-adjusted: 0.36
  Hazard ratio (RR) of incident diabetes, multivariate-adjusted: 0.38
[1]; quintile V, 5,469 person-years of follow-up
  No. of incident cases of diabetes mellitus: 38
[1]; women
  extreme-quintile RR of incident diabetes: 0.41
[5]; [13]
  CRP: 3.3 mg/L
  hemoglobinAlc: 5.92
  interleukin-6 (IL-6): 2.3 pg/mL
  total:HDL-C: 4.21
[5]; [14]
  CRP: 2.1 mg/L
  hemoglobinAlc: 5.66
  interleukin-6 (IL-6): 1.8 pg/mL
  total:HDL-C: 3.87
[5]; [15]
  HDL-C: 56.5 mg/dL
  hemoglobinAlc: 5.88%
  total:HDL-C: 4.28
[5]; [16]
  HDL-C: 61.7 mg/dL
  hemoglobinAlc: 5.64%
  total:HDL-C: 3.63
